Measured values published in patent US6329000A, “Extract of pine needle and the use thereof” (priority 1999, dated 2001).

Legend:
blood-lipid = assay: Hypolipidemic test in rabbits on high fat diet; format: in vivo, rabbit; details: positive control 0.3 g/kg/d
Description: Experimental animals: 60 Beijing white rabbits with big ears, all male with body weight of 1.5-2 kg.
Drugs and reagents: cholesterol (produced at Beijing Chemical Reagent Company). Propyl thiooxyuracil tablet (refers to PTV hereafter, produced in Germany, 50 mg each tablet), lard (prepared by ourselves). The extract powder from pine needle of the invention (refers to the power of pine needle hereafter). Inostitol hexanicotinate tablet (produced by the second Pharmaceutical Factory of Beijing, 0.2 each tablet). The kits of total cholesterol, triglyceride, high density lipoprotein, and low density lipoprotein (produced by Beijing Zhongsheng Biotechnical Company).
Methods: The white rabbits with big ears were divided into 5 groups at random after raised for 10 days with normal diet. 10 rabbits each group. The high fat diet was given after taking blood from the helicine veins of the fasting rabbits in the morning. Determined the blood-lipid of the blood samples. The high fat diet included cholesterol 2 g/kg (body weight)/d, lard 0.5 g/kg/d, PTV 12.5 mg/kg/d. In the forth group, gave […] of the powder of pine needle along with the high fat diet to the rabbits of (the prevention group). Took blood from the fasting rabbits again and determined their body weights after 15 days of high-fat diet. Then stopped the high-fat diet and changed it for normal diet: (1) blank control group: giving distilled water 10 ml each day with the gavage method; (2) positive control group: giving Inositol hexnicotinate tablets, 0.3 g/kg/d; (3) low dose group: giving the powder of pine needle, 0.25 g/kg/d; (4) prevention group: went on giving the powder of pine needle 0.75 g/kg/d, 30 days in all; (5) high dose group: giving the powder of pine needle, 1.5 g/kg/d. The powder was dissolve din 10 ml distilled water and gave it with gavage method once a day. Took blood from the fasting rabbits on the fifteenth day after the administration to determine the levels of blood-lipid. The levels of total cholestorol, triglyceride, high density lipoprotein and low density lipoprotein were examined by CHOO-PAP method, GPO-PAP method, PTA-Mg^2+ deposition method and PVS one-step deposition method, respectively. The instrument used was Hitachi, Model 750 automatic biochemical analyzer.

blood pressure = assay: Clinical test of the composition to lower blood pressure; format: in vivo, human; details: 44 cases per group, 20 days
Description: All of them were diagnosed as hypertension according to the diagnostic standard of WHO. […] The patients of the control group were treated with Captopril. The patients of the control group were adults aged below 59, and their average age was 47±7.8. The patients stopped taking hypotensor a week before taking part in the test. […] If the blood pressure was not reduced to the normal scope, then a dose (0.5 g) was increased every 5 days. The crescendo every 5 days, and the maximal dose couldn't exceed 3 g each time and 3 times a day. The whole course of treatment was 20 days. 25 mg Captopril was given to the patients of the control group each time and three times a day. […] The crescendo every 5 days, and the maximal dose couldn't exceed 75 mg each time and three times a day. The whole course of treatment was 20 days too.
The blood pressure before treatment: All the patients stopped taking hypotensor a week before treatment. Then the blood pressure was measured once a day continuously for 5 days. Took the mean of the 5 values (non same day) as the blood pressure before treatment.
The blood pressure after treatment: Measured the blood pressure once a day after the treatment. Took the mean of the 5 values measured on the 16th, 17th, 18th, 19th, 20th day after the treatment as the blood pressure after the treatment. Examined the blood routine, the urine routine, the functions of liver, the renal function, the serum electrolyte (including K^+, Na^+, Cl^-), the blood-lipid, the blood sugar, the ECG of every day before and after the treatment.
The criteria of therapeutic effect:
As to the systolic hypertension, the systolic pressure was reduced more than 4 kpa. Ineffectiveness: The decrement of the blood pressure after the treatment didn't achieve the above standard.

`O=C(O[C@H]1[C@H](OC(=O)c2cccnc2)[C@@H](OC(=O)c2cccnc2)[C@H](OC(=O)c2cccnc2)[C@@H](OC(=O)c2cccnc2)[C@H]1OC(=O)c1cccnc1)c1cccnc1` [Inositol hexanicotinate] was tested, and the “high density lipoprotein IR % (increasing rate)” value (blood-lipid) was 8.90%, the “low density lipoprotein DR %” value (blood-lipid) was 37.38% and the “total cholesterol DR % (decreasing rate)” value (blood-lipid) was 28.20%. The “triglyceride DR %” value (blood-lipid) was 16.03%, the “high density lipoprotein after treatment” value (blood-lipid; after HFD 0.83) was 0.74 and the triglyceride after treatment (blood-lipid; after HFD 1.87) was 1.64. For the same compound, the “low density lipoprotein after treatment” value (blood-lipid; after HFD 9.20) was 5.71 and the “total cholesterol after treatment” value (blood-lipid; after HFD 26.67) was 19.48.
`C[C@H](CS)C(=O)N1CCC[C@H]1C(=O)O` [captopril] gave an Effectiveness (blood pressure) of 10 case number, an ineffectiveness (blood pressure) of 8 case number and a total effective rate (blood pressure) of 82%. It also gave a remarkable effectiveness (blood pressure; composition 1.5-3 g t.i.d., captopril 25-75 mg t.i.d.) of 26 case number.
